The NIST ThermoML archive (doi:10.1021/je500917k)
± gives the expanded uncertainty stated by the source.

Legend:
[1] = xn = mol fraction of the nth substance listed; conditions: 100 kPa, Liquid; for speed of sound: Frequency=2 MHz
[2] = 100 kPa, Liquid; for speed of sound: Frequency=2 MHz

CNCCO [2-(methylamino)ethanol] + CCN1CCCC1=O
speed of sound ([1]; 293.15 K, x2 = 0): 1486.5 ± 2.9 m/s | mass density ([1]; 293.15 K, x2 = 0): 941.79 ± 0.54 kg/m3 | viscosity ([1]; 293.15 K, x2 = 0): 13.42 ± 0.25 mPa·s | speed of sound ([1]; 303.15 K, x2 = 0): 1454.6 ± 2.9 m/s | mass density ([1]; 303.15 K, x2 = 0): 934.02 ± 0.54 kg/m3 | viscosity ([1]; 303.15 K, x2 = 0): 8.58 ± 0.17 mPa·s | speed of sound ([1]; 313.15 K, x2 = 0): 1422.7 ± 2.9 m/s | mass density ([1]; 313.15 K, x2 = 0): 926.18 ± 0.55 kg/m3 | viscosity ([1]; 313.15 K, x2 = 0): 5.869 ± 0.12 mPa·s | speed of sound ([1]; 323.15 K, x2 = 0): 1390.9 ± 2.9 m/s | mass density ([1]; 323.15 K, x2 = 0): 918.25 ± 0.55 kg/m3 | viscosity ([1]; 323.15 K, x2 = 0): 4.096 ± 0.092 mPa·s

CCN1CCCC1=O [1-ethyl-2-pyrrolidinone] + CCNCCO
speed of sound ([1]; 293.15 K, x1 = 1): 1512.1 ± 3.4 m/s | mass density ([1]; 293.15 K, x1 = 1): 997.71 ± 0.94 kg/m3 | viscosity ([1]; 293.15 K, x1 = 1): 2.117 ± 0.053 mPa·s | speed of sound ([1]; 303.15 K, x1 = 1): 1474.2 ± 3.4 m/s | mass density ([1]; 303.15 K, x1 = 1): 989.14 ± 0.94 kg/m3 | viscosity ([1]; 303.15 K, x1 = 1): 1.771 ± 0.045 mPa·s | speed of sound ([1]; 313.15 K, x1 = 1): 1436 ± 3.4 m/s | mass density ([1]; 313.15 K, x1 = 1): 980.56 ± 0.94 kg/m3 | viscosity ([1]; 313.15 K, x1 = 1): 1.518 ± 0.039 mPa·s | speed of sound ([1]; 323.15 K, x1 = 1): 1398.5 ± 3.4 m/s | mass density ([1]; 323.15 K, x1 = 1): 971.96 ± 0.94 kg/m3 | viscosity ([1]; 323.15 K, x1 = 1): 1.299 ± 0.034 mPa·s

CCNCCO [2-(ethylamino)ethanol]
mass density ([2]; 293.15 K): 917.79 ± 0.55 kg/m3 | viscosity ([2]; 293.15 K): 15.28 ± 0.28 mPa·s | speed of sound ([2]; 293.15 K): 1442.4 ± 2.9 m/s | mass density ([2]; 303.15 K): 909.82 ± 0.56 kg/m3 | viscosity ([2]; 303.15 K): 9.59 ± 0.19 mPa·s | speed of sound ([2]; 303.15 K): 1408.3 ± 2.9 m/s | mass density ([2]; 313.15 K): 901.79 ± 0.57 kg/m3 | viscosity ([2]; 313.15 K): 6.406 ± 0.13 mPa·s | speed of sound ([2]; 313.15 K): 1374.5 ± 2.9 m/s | mass density ([2]; 323.15 K): 893.68 ± 0.57 kg/m3 | viscosity ([2]; 323.15 K): 4.527 ± 0.1 mPa·s | speed of sound ([2]; 323.15 K): 1340.9 ± 2.9 m/s

CCN1CCCC1=O [1-ethyl-2-pyrrolidinone]
mass density ([2]; 293.15 K): 997.71 ± 0.94 kg/m3 | viscosity ([2]; 293.15 K): 2.117 ± 0.053 mPa·s | speed of sound ([2]; 293.15 K): 1512.1 ± 3.4 m/s | mass density ([2]; 303.15 K): 989.14 ± 0.94 kg/m3 | viscosity ([2]; 303.15 K): 1.771 ± 0.045 mPa·s | speed of sound ([2]; 303.15 K): 1474.2 ± 3.4 m/s | mass density ([2]; 313.15 K): 980.56 ± 0.94 kg/m3 | viscosity ([2]; 313.15 K): 1.518 ± 0.039 mPa·s | speed of sound ([2]; 313.15 K): 1436 ± 3.4 m/s | mass density ([2]; 323.15 K): 971.96 ± 0.94 kg/m3 | viscosity ([2]; 323.15 K): 1.299 ± 0.034 mPa·s | speed of sound ([2]; 323.15 K): 1398.5 ± 3.4 m/s

CNCCO [2-(methylamino)ethanol]
mass density ([2]; 293.15 K): 941.79 ± 0.54 kg/m3 | viscosity ([2]; 293.15 K): 13.42 ± 0.25 mPa·s | speed of sound ([2]; 293.15 K): 1486.5 ± 2.9 m/s | mass density ([2]; 303.15 K): 934.02 ± 0.54 kg/m3 | viscosity ([2]; 303.15 K): 8.58 ± 0.17 mPa·s | speed of sound ([2]; 303.15 K): 1454.6 ± 2.9 m/s | mass density ([2]; 313.15 K): 926.18 ± 0.55 kg/m3 | viscosity ([2]; 313.15 K): 5.869 ± 0.12 mPa·s | speed of sound ([2]; 313.15 K): 1422.7 ± 2.9 m/s | mass density ([2]; 323.15 K): 918.25 ± 0.55 kg/m3 | viscosity ([2]; 323.15 K): 4.096 ± 0.092 mPa·s | speed of sound ([2]; 323.15 K): 1390.9 ± 2.9 m/s
